The record followed here is patent US20230150981A1, “N-HETEROARYLALKYL-2-(HETEROCYCLYL AND HETEROCYCLYLMETHYL) ACETAMIDE DERIVATIVES AS SSTR4 AGONISTS” (Takeda Pharmaceutical Compnay Limited, priority 2020, published 2023).

Assay [1] concerns the target T1, SSTR4 (Homo sapiens, UniProt P31391).
T1 construct: host or cells: CHO-K1
Nature of the assay: Inhibition of forskolin stimulated cAMP in CHO-K1 cells overexpressing SSTR4. The following applies: read-out: SSTR4 Activity pEC50 (converted). In kind it is cell-based. Put shortly:
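CHO-K1 cells overexpressing SSTR4 treated 30 min at room temperature with compound in Krebs Ringer buffer containing 0.5% BSA, 300 μM IBMX and 350 nM forskolin. Intracellular cAMP measured by HTRF LANCE Ultra (665/615 nm); pEC50 values reported.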

The target in the next assay is T2, SSTR1 (Homo sapiens, UniProt P30872).
T2 construct: purchased Perkin Elmer ES-520-M400UA; host or cells: CHO-K1 membranes
T2 sequence (P30872 whole entry): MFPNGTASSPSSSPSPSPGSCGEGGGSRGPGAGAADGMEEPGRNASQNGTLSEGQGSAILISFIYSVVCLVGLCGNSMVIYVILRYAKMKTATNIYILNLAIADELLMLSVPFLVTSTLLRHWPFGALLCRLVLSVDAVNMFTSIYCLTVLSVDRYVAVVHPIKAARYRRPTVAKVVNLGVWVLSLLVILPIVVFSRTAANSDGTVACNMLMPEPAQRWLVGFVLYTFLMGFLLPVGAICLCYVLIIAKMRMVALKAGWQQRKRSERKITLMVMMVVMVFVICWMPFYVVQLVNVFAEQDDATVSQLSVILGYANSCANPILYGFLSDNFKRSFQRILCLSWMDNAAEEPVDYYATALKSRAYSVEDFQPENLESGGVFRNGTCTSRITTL
Nature of the assay: SSTR1 I-125 somatostatin competition binding assay for selectivity versus SSTR1 (CHO-K1 membranes). The following applies: competition with I-125 somatostatin, membranes from CHO-K1 overexpressing SSTR1; read-out: SSTR1 Binding pIC50 (converted). The protocol: SSTR1 I-125 Somatostatin Competition Binding Assay for Selectivity Versus SSTR1
Membranes from CHO-K1 cells overexpressing SSTR1 are purchased from Perkin Elmer (catalog number ES-520-M400UA). Test compounds are suspended in DMSO and then diluted in assay buffer (25 mM HEPES pH 7.4, 10 mM MgCl2, 1 mM CaCl2), 0.5% BSA) plus 0.4 nM I-125 labeled somatostatin (Perkin Elmer catalog number NEX389). Fifty μL of compound/I-125 somatostatin in assay buffer are added per well to 96-well poly-propylene plate. Then 10 μg of SSTR1 membranes in 50 μL assay buffer are added per well. The plate is incubated for 60 minutes at room temperature. FilterMat A filters (Perkin Elmer catalog number 1450-421) are pre-soaked in 0.5% PEI (Sigma catalog number P3143). The contents of the assay plate are transferred to filters with a TomTech harvester and washed 5 times with 20 mM HEPES, 100 mM NaCl. The filters are dried in a microwave oven then transferred to sample bag containing a scintillator sheet (Perkin Elmer catalog number 1450-441). The scintillator sheets are melted to the filters using a heat block. The filters are then read in a MicroBeta scintillation counter. Binding Ki curves are generated using Activity Base for Screening Data Management and the results are reported as pIC50.

The target in assay [2] is T1, SSTR4. Nature of the assay: SSTR4 I-125 somatostatin competition binding assay (CHO-K1 membranes). Conditions: competition with I-125 somatostatin, membranes from CHO-K1 overexpressing SSTR4; read-out: SSTR4 Binding pIC50 (converted). The protocol:
SSTR4 I-125 Somatostatin Competition Binding Assay
Membranes from CHO-K1 cells overexpressing SSTR4 are purchased from Perkin Elmer (catalog number ES-524-M400UA). Test compounds are suspended in DMSO and then diluted in assay buffer (25 mM HEPES pH 7.4, 10 mM MgCl2, 1 mM CaCl2), 0.5% BSA) plus 0.2 nM I-125 labeled somatostatin (Perkin Elmer catalog number NEX389). Fifty μL of compound/I-125 somatostatin in assay buffer are added per well to 96-well poly-propylene plate. Then 1 μg of SSTR4 membranes in 50 μL assay buffer are added per well. The Plate is incubated for 60 minutes at room temperature. FilterMat A filters (Perkin Elmer catalog number 1450-421) are pre-soaked in 0.5% PEI (Sigma catalog number P3143). The contents of the assay plate are transferred to filters with a TomTech harvester and washed 5 times with 20 mM HEPES, 100 mM NaCl. The filters are dried in a microwave oven then transferred to sample bag containing a scintillator sheet (Perkin Elmer catalog number 1450-441). The scintillator sheets are melted to filters using a heat block. The filters are then read in a MicroBeta scintillation counter. Binding Ki curves are generated using Activity Base for Screening Data Management and the results are reported as pIC50.

T1 sequence (P31391 whole entry): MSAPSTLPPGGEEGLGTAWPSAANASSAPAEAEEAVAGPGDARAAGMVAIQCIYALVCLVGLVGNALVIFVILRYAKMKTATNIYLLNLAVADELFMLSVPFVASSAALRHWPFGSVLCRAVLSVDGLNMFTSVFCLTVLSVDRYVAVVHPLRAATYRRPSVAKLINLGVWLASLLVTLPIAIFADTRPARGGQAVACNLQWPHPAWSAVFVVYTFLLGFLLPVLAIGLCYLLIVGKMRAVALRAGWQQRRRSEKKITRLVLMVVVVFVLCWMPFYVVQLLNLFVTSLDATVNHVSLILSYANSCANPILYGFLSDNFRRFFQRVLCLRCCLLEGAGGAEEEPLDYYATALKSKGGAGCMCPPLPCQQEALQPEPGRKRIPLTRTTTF

Take `CC(C)(NC(=O)CCN1CCC1)c1cccc(Cl)c1` [Example 164, 3-(azetidin-1-yl)-N-(2-(3-chlorophenyl)propan-2-yl)propanamide]: on SSTR4 [1], the EC50 is 12.6 nM. The IC50 was 31600 nM on SSTR1 and 39.8 nM at SSTR4 [2].

With `CN1CCCCC1CC(=O)NC(C)(C)c1cc(Cl)ccc1Cl` (stereo not drawn) [Example 45, N-(2-(2,5-dichlorophenyl)propan-2-yl)-2-(1-methylpiperidin-2-yl)acetamide], the EC50 on SSTR4 [1] was 25.1 nM. The IC50 at SSTR1 was 7940 nM; at SSTR4 [2], 158 nM.

For the compound `Cc1cccc(OCC(C)(C)NC(=O)C[C@@H]2CCCN2C)n1` [Example 104, (S)-N-(2-methyl-1-((6-methylpyridin-2-yl)oxy)propan-2-yl)-2-(1-methylpyrrolidin-2-yl)acetamide], the EC50 on SSTR4 [1] was 100 nM. Also, the IC50 was 39800 nM at SSTR1 and 2000 nM at SSTR4 [2].

As to `O=C(CCN1CCC1)NC(c1cccc(Cl)c1)C(F)(F)F` (single isomer, unassigned) [Example 191], the EC50 at SSTR4 [1] is 2 nM. For the same compound, the IC50 at SSTR1 is 2510 nM; at SSTR4 [2] it was 10 nM.

Consider `CC[C@@H](CN1CCC1)C(=O)N[C@H](c1ccc(F)cc1)C(F)F` [Example 204, (S)-2-(azetidin-1-ylmethyl)-N-((R)-2,2-difluoro-1-(4-fluorophenyl)ethyl)butanamide], for which, at SSTR4 [1], the EC50 is 0.1 nM. In addition, the figures for the IC50 on SSTR1 and on SSTR4 [2] were 631 nM and 3.16 nM, respectively.

As to `Cc1cccc2c(C(C)(C)NC(=O)C[C@@H]3CCCN3C)noc12` [Example 21, (S)-N-(2-(7-methylbenzo[d]isoxazol-3-yl)propan-2-yl)-2-(1-methylpyrrolidin-2-yl)acetamide], on SSTR4 [1], the EC50 was 12.6 nM. Further, the IC50 at SSTR1 is 25100 nM; on SSTR4 [2] it was 79.4 nM.

With `CN1CCC[C@@H]1CC(=O)NC(C)(C)c1nccc2occc12` [Example 39, (R)-N-(2-(furo[3,2-c]pyridin-4-yl)propan-2-yl)-2-(1-methylpyrrolidin-2-yl)acetamide], the EC50 on SSTR4 [1] was 50.1 nM. The results for the IC50 at SSTR1 and at SSTR4 [2] were over 50100 nM and 794 nM, respectively.

As for `CC(C)(NC(=O)CCN1CCCC1)c1nccc2ccccc12` [Example 5, N-(2-(isoquinolin-1-yl)propan-2-yl)-3-(pyrrolidin-1-yl)propanamide], the EC50 on SSTR4 [1] was 3.98 nM. Moreover, the IC50 is 5010 nM on SSTR1 and 50.1 nM on SSTR4 [2].

Take `CC(C)(NC(=O)C[C@@H]1CCCN1)c1nccc2ccccc12` [Example 23, (S)-N-(2-(isoquinolin-1-yl)propan-2-yl)-2-(pyrrolidin-2-yl)acetamide]: the EC50 at SSTR4 [1] is 25.1 nM. In addition, the IC50 at SSTR1 was 7940 nM; at SSTR4 [2], 1000 nM.

Take `Cc1cccnc1OCC(C)(C)NC(=O)C[C@H]1CCCN1C` [Example 46, (R)-N-(2-methyl-1-((3-methylpyridin-2-yl)oxy)propan-2-yl)-2-(1-methylpyrrolidin-2-yl)acetamide]: on SSTR4 [1], the EC50 is 12.6 nM. Further, the results for the IC50 at SSTR1 and on SSTR4 [2] were 25100 nM and 398 nM, respectively.

Regarding `Cc1ccc([C@H](CF)NC(=O)CCN2CCC2)cc1` (single isomer, unassigned) [Example 175], on SSTR4 [1], the EC50 was 20 nM. Further, the IC50 at SSTR1 is 31600 nM; on SSTR4 [2], 158 nM.

With `Cc1ccccc1C(C)(C)NC(=O)[C@H](C)CN1CCC1` (single isomer, unassigned) [Example 140], the EC50 on SSTR4 [1] is 6.31 nM. Besides, the figures for the IC50 at SSTR1 and on SSTR4 [2] were 12600 nM and 50.1 nM, respectively.

For `Cc1cccc2c(C(C)(C)NC(=O)C[C@@H]3CCCCN3C)noc12` (single isomer, unassigned) [Example 44], the EC50 on SSTR4 [1] was 6.31 nM. Moreover, the IC50 at SSTR1 was 12600 nM; at SSTR4 [2], 63.1 nM.

As for `Cc1cccnc1OCC(C)(C)NC(=O)C[C@@H]1CCCN1C` [Example 47, (S)-N-(2-methyl-1-((3-methylpyridin-2-yl)oxy)propan-2-yl)-2-(1-methylpyrrolidin-2-yl)acetamide], the EC50 on SSTR4 [1] was 12.6 nM. Also, the IC50 was 25100 nM on SSTR1 and 398 nM at SSTR4 [2].

As for `Cc1cccc2c(C(C)(C)NC(=O)C[C@H]3CCCCN3C)noc12` (single isomer, unassigned) [Example 43], the EC50 on SSTR4 [1] was 2 nM. Besides, the IC50 was 3980 nM on SSTR1 and 20 nM on SSTR4 [2].

With `Cc1cccc2c(C(C)(C)NC(=O)C[C@@H]3CCCCN3C)nccc12` (single isomer, unassigned) [Example 9], the EC50 on SSTR4 [1] is 12.6 nM. Moreover, the figures for the IC50 at SSTR1 and at SSTR4 [2] were 7940 nM and 126 nM, respectively.

For the compound `COc1c(Cl)cccc1C(C)(C)NC(=O)C[C@@H]1CCCN1C` [Example 112, (S)-N-(2-(3-chloro-2-methoxyphenyl)propan-2-yl)-2-(1-methylpyrrolidin-2-yl)acetamide], at SSTR4 [1], the EC50 was 79.4 nM. The IC50 at SSTR1 was over 50100 nM; at SSTR4 [2], 501 nM.

For `Cc1cccc(C(C)(C)NC(=O)CCN2CCC2)c1Cl` [Example 161, 3-(azetidin-1-yl)-N-(2-(2-chloro-3-methylphenyl)propan-2-yl)propanamide], the EC50 on SSTR4 [1] is 3.98 nM. Also, the IC50 on SSTR1 was 6310 nM; at SSTR4 [2] it was 50.1 nM.

`Cc1cccc(C(C)(C)NC(=O)C[C@@H]2CCCN2C)c1C` [Example 92, (S)-N-(2-(2,3-dimethylphenyl)propan-2-yl)-2-(1-methylpyrrolidin-2-yl)acetamide]: the EC50 at SSTR4 [1] is 63.1 nM. Besides, the results for the IC50 at SSTR1 and at SSTR4 [2] were over 50100 nM and 1000 nM, respectively.

`CN1CCC[C@@H]1CC(=O)NC(C)(C)[C@@H]1CCc2ccccc2O1` (single isomer, unassigned) [Example 131]: the EC50 at SSTR4 [1] is 50.1 nM. For the same compound, the IC50 at SSTR1 was 12600 nM; on SSTR4 [2], 251 nM.

As to `CC[C@@H](CN1CCC1)C(=O)N[C@H](c1cccc(F)c1)C(F)F` [Example 195, (S)-2-(azetidin-1-ylmethyl)-N-((R)-2,2-difluoro-1-(3-fluorophenyl)ethyl)butanamide], the EC50 on SSTR4 [1] is 2 nM. The IC50 is 1000 nM on SSTR1 and 2.51 nM at SSTR4 [2].

As for `Cc1cc2ccccc2c(C(C)(C)NC(=O)C[C@@H]2CCCN2C)n1` [Example 22, (S)-N-(2-(3-methylisoquinolin-1-yl)propan-2-yl)-2-(1-methylpyrrolidin-2-yl)acetamide], the EC50 at SSTR4 [1] was 7.94 nM. The results for the IC50 on SSTR1 and on SSTR4 [2] were 2510 nM and 63.1 nM, respectively.

With `Cc1cccc(C(C)(C)NC(=O)C[C@@H]2CCCN2C)c1Cl` [Example 88, (S)-N-(2-(2-chloro-3-methylphenyl)propan-2-yl)-2-(1-methylpyrrolidin-2-yl)acetamide], the EC50 at SSTR4 [1] was 63.1 nM. The results for the IC50 on SSTR1 and at SSTR4 [2] were 39800 nM and 398 nM, respectively.

Regarding `CCN1CCC[C@@H]1CC(=O)NC(C)(C)COc1ncccc1C(F)(F)F` [Example 57, (R)-2-(1-ethylpyrrolidin-2-yl)-N-(2-methyl-1-((3-(trifluoromethyl)pyridin-2-yl)oxy)propan-2-yl)acetamide], the EC50 at SSTR4 [1] was 3.98 nM. Also, the figures for the IC50 on SSTR1 and on SSTR4 [2] were 12600 nM and 100 nM, respectively.

Consider `O=C(CCN1CCC1)NC(c1cccc(F)c1)C(F)(F)F` (single isomer, unassigned) [Example 193], for which, on SSTR4 [1], the EC50 was 15.8 nM. The IC50 at SSTR1 was 31600 nM; at SSTR4 [2] it was 200 nM.

For the compound `C[C@@H](C(=O)NC(C)(C)c1nccc2ccccc12)[C@H]1CCCN1C` (racemic) [Example 111, (R)-N-(2-(isoquinolin-1-yl)propan-2-yl)-2-((R)-1-methylpyrrolidin-2-yl)propanamide and (S)-N-(2-(isoquinolin-1-yl)propan-2-yl)-2-((S)-1-methylpyrrolidin-2-yl)propanamide], the EC50 on SSTR4 [1] was 3.16 nM. The values for the IC50 at SSTR1 and on SSTR4 [2] were 3980 nM and 25.1 nM, respectively.
